In patent US12421254B2, “KRAS modulators and uses thereof” (Quanta Therapeutics, Inc., priority 2023, dated 2025) one finds IC50 data, which are given here for 14 compounds.

For assay [1], the system named is phospho-ERK in SW620 (KRAS-G12V) cells. The experiment in a line: pERK In Cell Western (ICW) assay (Method B), SW620. It is filed as cell-based. Particulars: Homo sapiens, SW-620, 3 h, Table 4. An outline of the steps:
(§1)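 Read-out is In-Cell Western phospho-ERK signal divided by DRAQ5 per well, as percent of blank control, fitted with a 4-parameter variable-slope model for IC50. Compounds were dosed as 9-point half-log series for 3 h at 37°C on AGS, GP2D (G12D) or SW620 (G12V) cells plated the day before.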

Assay [2] relates to phospho-ERK in GP2D (KRAS-G12D) cells. Nature of the assay: pERK In Cell Western (ICW) assay (Method B), GP2D. It is filed as cell-based. An outline of the steps:
as §1

Assay [3] deals with GST-tagged KRAS-G12V (2-169) (Homo sapiens, UniProt P01116, G12V). Nature of the assay: Nucleotide exchange assay (NEA), SOS-mediated, HTRF, KRAS G12V. It is filed as biochemical. Particulars: Table 4; IC50 extracted at 90 min; 80 nM SOS. An outline of the steps: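 Exchange onto fluorescent GTP-DY-647P1 (150 nM final) catalysed by 80 nM SOS1cat was followed by Tb-anti-GST HTRF at RT for up to 90 min, after 1 h compound pre-incubation with 0.25 nM GST-tagged KRAS-G12V (2-169), pH 7.3. DMSO = 0%, no-SOS blank = 100%; 4-parameter IC50 taken at 90 min.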

For assay [4], the target named is GST-tagged KRAS-G12D (2-169) (Homo sapiens, UniProt P01116, G12D). The experiment in a line: Nucleotide exchange assay (NEA), SOS-mediated, HTRF, KRAS G12D. The class given is biochemical. Particulars: Table 4; IC50 extracted at 30 min; 20 nM SOScat; read-out: NEA G12D IC50. An outline of the steps:
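SOS1cat-driven loading of fluorescent GTP-DY-647P1 (150 nM) onto GST-KRAS-G12D (2-169, 0.25 nM) read by time-resolved FRET; SOScat 20 nM, compound preincubated with KRAS 1 h at RT. Signal blanked to no-SOS reactions, normalized to DMSO; IC50 fitted from the 30-min read.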

Each structure is given as a SMILES string.

Chain of GST-tagged KRAS-G12V (2-169) (P01116 2-169 isoform P01116-2 G12V): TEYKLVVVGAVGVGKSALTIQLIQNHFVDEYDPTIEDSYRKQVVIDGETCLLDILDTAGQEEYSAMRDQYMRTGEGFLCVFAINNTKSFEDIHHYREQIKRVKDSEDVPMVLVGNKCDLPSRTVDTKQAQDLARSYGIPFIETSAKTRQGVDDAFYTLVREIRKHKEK
Chain of GST-tagged KRAS-G12D (2-169) (P01116 2-169 isoform P01116-2 G12D): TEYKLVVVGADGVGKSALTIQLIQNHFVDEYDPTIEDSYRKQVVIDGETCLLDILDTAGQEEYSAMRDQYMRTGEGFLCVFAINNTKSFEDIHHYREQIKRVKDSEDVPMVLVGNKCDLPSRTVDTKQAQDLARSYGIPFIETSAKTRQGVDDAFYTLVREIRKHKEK

As a reminder, the IC50 is the point on the concentration scale where inhibition reaches its midpoint. In the case of `C[C@@]1(CO)C[C@@H](O)CN1c1nc(OC[C@@]23CCCN2C[C@H](F)C3)nc(N2CC3(CCc4sc(N)c(C#N)c43)C2)n1` [Compound 59, 2-amino-1′-[4-[[(2R,8S)-2-fluoro-1,2,3,5,6,7-hexahydropyrrolizin-8-yl]methoxy]-6-[(2S,4R)-4-hydroxy-2-(hydroxymethyl)-2-methyl-pyrrolidin-1-yl]-1,3,5-triazin-2-yl]spiro[5,6-dihydrocyclopenta[b]thiophene-4,3′-azetidine]-3-carbonitrile], the half-inhibitory concentration (IC50) in assay [1] is ≥ 20000 nM; in assay [2] (GP2d, 3 h, Table 4) it was ≥ 20000 nM; in assay [3], 10 to 100 nM; in assay [4], 100 to 1000 nM.
With `CN(Cc1cncs1)c1nc(OC[C@@]23CCCN2C[C@H](F)C3)nc(N2CC3(CCc4sc(N)c(C#N)c43)C2)n1` [Compound 152, 2-amino-1′-[4-[[(2R,8S)-2-fluoro-1,2,3,5,6,7-hexahydropyrrolizin-8-yl]methoxy]-6-[methyl(thiazol-5-ylmethyl)amino]-1,3,5-triazin-2-yl]spiro[5,6-dihydrocyclopenta[b]thiophene-4,3′-azetidine]-3-carbonitrile], the IC50 in assay [1] lay in the range of 1000 to 20000 nM; in assay [2] (GP2d, 3 h, Table 4), 1000 to 20000 nM; in assay [3], 100 to 1000 nM; in assay [4] it was 1000 to 20000 nM.
On to `N#Cc1c(N)sc2c1C1(CC2)CN(c2nc(OC[C@@]34CCCN3C[C@H](F)C4)nc(N3CCCCC3C(N)=O)n2)C1` (stereo partly drawn) [Compound 40, 1-[4-(2-amino-3-cyano-spiro[5,6-dihydrocyclopenta[b]thiophene-4,3′-azetidine]-1′-yl)-6-[[(2R,8S)-2-fluoro-1,2,3,5,6,7-hexahydropyrrolizin-8-yl]methoxy]-1,3,5-triazin-2-yl]piperidine-2-carboxamide], for which the IC50 in assay [1] is ≥ 20000 nM; in assay [2] (GP2d, 3 h, Table 4) it was 1000 to 20000 nM; in assay [3], 1000 to 20000 nM; in assay [4], 100 to 1000 nM.
On to `N#Cc1c(N)sc2c1C1(CN(c3nc(OC[C@@]45CCCN4C[C@H](F)C5)nc(N(CC(N)=O)Cc4cccnc4N)n3)C1)SC2` [Compound 194, 2-[[4-(2-amino-3-cyano-spiro[6H-thieno[3,4-b]thiophene-4,3′-azetidine]-1′-yl)-6-[[(2R,8S)-2-fluoro-1,2,3,5,6,7-hexahydropyrrolizin-8-yl]methoxy]-1,3,5-triazin-2-yl]-[(2-amino-3-pyridyl)methyl]amino]acetamide], for which the IC50 is 1000 to 20000 nM in assay [1]; 1000 to 20000 nM in assay [2] (GP2d, 3 h, Table 4); < 10 nM in assay [3]; < 10 nM in assay [4].
As for `CCN(c1nc(OC[C@@]23CCCN2C[C@H](F)C3)nc(N2CC3(CCc4sc(N)c(C#N)c43)C2)n1)[C@H](C)c1cccnc1N` [Compound 173, 2-amino-1′-[4-[[(1R)-1-(2-amino-3-pyridyl)ethyl]-ethyl-amino]-6-[[(2R,8S)-2-fluoro-1,2,3,5,6,7-hexahydropyrrolizin-8-yl]methoxy]-1,3,5-triazin-2-yl]spiro[5,6-dihydrocyclopenta[b]thiophene-4,3′-azetidine]-3-carbonitrile], the IC50 in assay [1] was < 10 nM; in assay [2] (GP2d, 3 h, Table 4), < 10 nM; in assay [3] it was < 10 nM; in assay [4], < 10 nM.
Take `C[C@@]1(O)CCCN(c2nc(OCC3(CN4CCOCC4)CC3)nc(N3CC4(C3)c3c(sc(N)c3C#N)C[C@H]4F)n2)C1` [Compound 70, (5R)-2-amino-5-fluoro-1′-[4-[(3R)-3-hydroxy-3-methyl-1-piperidyl]-6-[[1-(morpholinomethyl)cyclopropyl]methoxy]-1,3,5-triazin-2-yl]spiro[5,6-dihydrocyclopenta[b]thiophene-4,3′-azetidine]-3-carbonitrile]: the IC50 is 100 to 1000 nM in assay [1]; 100 to 1000 nM in assay [2] (GP2d, 3 h, Table 4); < 10 nM in assay [3]; < 10 nM in assay [4].
As for `CCN(c1nc(OC[C@@]23CCCN2C[C@H](F)C3)nc(N2CC3(C2)c2c(sc(N)c2C#N)CN3C)n1)[C@H](C)c1cccnc1N` [Compound 226, 2-amino-1′-[4-[[(1R)-1-(2-amino-3-pyridyl)ethyl]-ethyl-amino]-6-[[(2R,8S)-2-fluoro-1,2,3,5,6,7-hexahydropyrrolizin-8-yl]methoxy]-1,3,5-triazin-2-yl]-5-methyl-spiro[6H-thieno[2,3-c]pyrrole-4,3′-azetidine]-3-carbonitrile], the IC50 in assay [1] was 10 to 100 nM; in assay [2] (GP2d, 3 h, Table 4) it was 10 to 100 nM; in assay [3], < 10 nM; in assay [4] it was < 10 nM.
As for `CC(O)CN(Cc1cccnc1N)c1nc(OC[C@@]23CCCN2C[C@H](F)C3)nc(N2CC3(CCc4sc(N)c(C#N)c43)C2)n1` (stereo partly drawn) [Compound 141, 2-amino-1′-[4-[(2-amino-3-pyridyl)methyl-(2-hydroxypropyl)amino]-6-[[(2R,8S)-2-fluoro-1,2,3,5,6,7-hexahydropyrrolizin-8-yl]methoxy]-1,3,5-triazin-2-yl]spiro[5,6-dihydrocyclopenta[b]thiophene-4,3′-azetidine]-3-carbonitrile], the IC50 in assay [1] was 100 to 1000 nM; in assay [2] (GP2d, 3 h, Table 4), 1000 to 20000 nM; in assay [3] it was < 10 nM; in assay [4] it was 10 to 100 nM.
Take `CC(c1cccnc1N)N(C)c1nc(OC[C@@]23CCCN2C[C@H](F)C3)nc(N2CC3(CCc4sc(N)c(C#N)c43)C2)n1` (single isomer, unassigned) [Compound 100A, 2-amino-1′-[4-[[(1*)-1-(2-amino-3-pyridyl)ethyl]-methyl-amino]-6-[[(2R,8S)-2-fluoro-1,2,3,5,6,7-hexahydropyrrolizin-8-yl]methoxy]-1,3,5-triazin-2-yl]spiro[5,6-dihydrocyclopenta[b]thiophene-4,3′-azetidine]-3-carbonitrile]: the IC50 in assay [1] is < 10 nM; in assay [2] (Table 4, 3 hours), 10 to 100 nM; in assay [3], < 10 nM; in assay [4], < 10 nM.
Consider `C[C@@]1(O)CCCN(c2nc(OC[C@@]34CCCN3C[C@H](F)C4)nc(N3CC4(C3)SCc3sc(N)c(C#N)c34)n2)C1` [Compound 49, 2-amino-1′-[4-[[(2R,8S)-2-fluoro-1,2,3,5,6,7-hexahydropyrrolizin-8-yl]methoxy]-6-[(3R)-3-hydroxy-3-methyl-1-piperidyl]-1,3,5-triazin-2-yl]spiro[6H-thieno[2,3-c]thiophene-4,3′-azetidine]-3-carbonitrile], for which the IC50 was 100 to 1000 nM in assay [1]; < 10 nM in assay [2] (GP2d, 3 h, Table 4); < 10 nM in assay [3]; < 10 nM in assay [4].
`CC(c1cn(C)nc1N)N(C)c1nc(OC[C@@]23CCCN2C[C@H](F)C3)nc(N2CC3(CCc4sc(N)c(C#N)c43)C2)n1` (stereo partly drawn) [Compound 157, amino-1′-[4-[1-(3-amino-1-methyl-pyrazol-4-yl)ethyl-methyl-amino]-6-[[(2R,8S)-2-fluoro-1,2,3,5,6,7-hexahydropyrrolizin-8-yl]methoxy]-1,3,5-triazin-2-yl]spiro[5,6-dihydrocyclopenta[b]thiophene-4,3′-azetidine]-3-carbonitrile]: the IC50 in assay [1] was 1000 to 20000 nM; in assay [2] (GP2d, 3 h, Table 4), 1000 to 20000 nM; in assay [3], 10 to 100 nM; in assay [4], 100 to 1000 nM.
For the compound `CCN(c1nc(OCC2(CN3C4CCC3COC4)CC2)nc(N2CC3(C2)SCc2sc(N)c(C#N)c23)n1)[C@H](C)c1cccnc1N` [Compound 203, 2-amino-1′-[4-[[(1R)-1-(2-amino-3-pyridyl)ethyl]-ethyl-amino]-6-[[1-(3-oxa-8-azabicyclo[3.2.1]octan-8-ylmethyl)cyclopropyl]methoxy]-1,3,5-triazin-2-yl]spiro[6H-thieno[3,4-b]thiophene-4,3′-azetidine]-3-carbonitrile], the concentration for half-maximal inhibition (IC50) in assay [1] is 10 to 100 nM; in assay [2] (GP2d, 3 h, Table 4) it was 10 to 100 nM; in assay [3], < 10 nM; in assay [4] it was < 10 nM.
For the compound `CN(c1nc(OC[C@@]23CCCN2C[C@H](F)C3)nc(N2CC3(C2)SCc2sc(N)c(C#N)c23)n1)C1CC1` [Compound 160, 2-amino-1′-[4-[cyclopropyl(methyl)amino]-6-[[(2R,8S)-2-fluoro-1,2,3,5,6,7-hexahydropyrrolizin-8-yl]methoxy]-1,3,5-triazin-2-yl]spiro[6H-thieno[3,4-b]thiophene-4,3′-azetidine]-3-carbonitrile], the IC50 in assay [1] fell in the range of 100 to 1000 nM; in assay [2] (GP2d, 3 h, Table 4), 100 to 1000 nM; in assay [3] it was 10 to 100 nM; in assay [4] it was 10 to 100 nM.
Consider `N#Cc1c(N)sc2c1C1(CC2)CN(c2nc(OCC3(CN4CCOCC4)CC3)nc(N3CCCC(O)(C(F)F)C3)n2)C1` (centres unmarked) [Compound 106, 2-amino-1′-[4-[3-(difluoromethyl)-3-hydroxy-1-piperidyl]-6-[[1-(morpholinomethyl)cyclopropyl]methoxy]-1,3,5-triazin-2-yl]spiro[5,6-dihydrocyclopenta[b]thiophene-4,3′-azetidine]-3-carbonitrile], for which the IC50 in assay [1] lay in the range of 1000 to 20000 nM; in assay [2] (GP2d, 3 h, Table 4), 100 to 1000 nM; in assay [3], 10 to 100 nM; in assay [4] it was 10 to 100 nM.
